The text below walks through data of PubChem BioAssay (NCI).

Some test systems named below: SF-268 CNS; RPMI-8226 leukemia; SNB-75 CNS; MOLT-4 leukemia; MALME-3M melanoma; CAKI-1 renal; NCI/ADR-RES ovarian; A498 renal; HT29 colon; SK-MEL-28 melanoma; NCI-H460 lung; UACC-62 melanoma; U251 CNS; SN12C renal; UACC-257 melanoma; SNB-19 CNS; NCI-H226 lung; COLO 205 colon; HOP-62 NSCLC.
Common to all, as to test: NCI-60 cell line screen, 48 h

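Five compound concentrations were applied to cells in 96-well plates for 48 hours; endpoints were derived by simple linear interpolation of the resulting dose-response curve. The concentration for full growth arrest is given as TGI.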

As for `Cc1ccc(Cc2n[nH]c(=O)n2-c2ccccc2)cc1`, the TGI in the assay with SF-268 CNS was greater than 100 µM; in the assay on RPMI-8226 leukemia, 76 µM; in the assay on SNB-75 CNS, greater than 100 µM; with MOLT-4 leukemia, greater than 100 µM; in the assay on MALME-3M melanoma, greater than 100 µM; in the assay on CAKI-1 renal it was greater than 100 µM. The TGI in the assay with NCI/ADR-RES ovarian, with A498 renal, in the assay on HT29 colon, in the assay with SK-MEL-28 melanoma, in the assay on NCI-H460 lung and in the assay with UACC-62 melanoma was greater than 100 µM throughout. Besides, the TGI with U251 CNS, with SN12C renal, with UACC-257 melanoma, in the assay on SNB-19 CNS and in the assay with NCI-H226 lung was greater than 100 µM throughout.
As for `CC(=O)Nc1ccc(N=C2C(c3ccccc3)=C(SC3=C(c4ccccc4)C(=Nc4ccc(NC(C)=O)cc4)c4ccccc43)c3ccccc32)cc1`, the TGI in the assay with COLO 205 colon was greater than 100 µM; in the assay on SF-268 CNS, greater than 100 µM; in the assay with RPMI-8226 leukemia, 81.1 µM; with SNB-75 CNS, greater than 100 µM; in the assay on MOLT-4 leukemia, 63 µM; in the assay with MALME-3M melanoma it was greater than 100 µM. Besides, the TGI with CAKI-1 renal was greater than 100 µM; in the assay on NCI/ADR-RES ovarian, 72.9 µM; with HOP-62 NSCLC, greater than 100 µM; with A498 renal it was 87.1 µM; in the assay with HT29 colon, greater than 100 µM; in the assay on SK-MEL-28 melanoma, greater than 100 µM. For the same molecule, the TGI in the assay on NCI-H460 lung, in the assay on U251 CNS, in the assay on SN12C renal, in the assay on UACC-257 melanoma, in the assay on SNB-19 CNS and in the assay with NCI-H226 lung was greater than 100 µM in each case.
For `CCOC(=O)[C@]12C(=C(c3ccccc3)O[C@H]3C=CCC[C@H]31)C(=O)C(=O)N2c1ccccc1`, the TGI in the assay with COLO 205 colon was greater than 100 µM; in the assay with SF-268 CNS, greater than 100 µM; with RPMI-8226 leukemia, 51.6 µM; with MOLT-4 leukemia, 61.3 µM; with MALME-3M melanoma, greater than 100 µM; with CAKI-1 renal it was greater than 100 µM. Moreover, the TGI in the assay with NCI/ADR-RES ovarian, in the assay on HOP-62 NSCLC, with A498 renal, in the assay with HT29 colon, in the assay on NCI-H460 lung and with UACC-62 melanoma was greater than 100 µM in each case. Also, the values for the TGI in the assay on U251 CNS, with SN12C renal and in the assay on SNB-19 CNS were 38.6 µM, greater than 100 µM and greater than 100 µM, respectively.
For `N#Cc1c2c(c(Nc3cccc(C(F)(F)F)c3)n3c1nc1ccccc13)CCC2`, the TGI with COLO 205 colon, with SF-268 CNS, in the assay on RPMI-8226 leukemia, in the assay on SNB-75 CNS, in the assay on MOLT-4 leukemia and in the assay with MALME-3M melanoma was greater than 100 µM each time. Also, the TGI in the assay with CAKI-1 renal, with NCI/ADR-RES ovarian, in the assay with HOP-62 NSCLC, in the assay with A498 renal, in the assay on HT29 colon and with SK-MEL-28 melanoma was greater than 100 µM in each case. The TGI in the assay with U251 CNS, with SN12C renal, in the assay on UACC-257 melanoma and in the assay with NCI-H226 lung was greater than 100 µM each time.
With `NC(=O)c1cccc(C2OC(COP(=O)(O)O)C(O)C2O)c1` (centres undefined), the TGI in the assay with COLO 205 colon, with SF-268 CNS, in the assay with RPMI-8226 leukemia, with SNB-75 CNS, in the assay on MOLT-4 leukemia and with MALME-3M melanoma was greater than 50 µM in each case. Also, the TGI in the assay with CAKI-1 renal, with HOP-62 NSCLC, in the assay with A498 renal, in the assay on HT29 colon, with SK-MEL-28 melanoma and with NCI-H460 lung was greater than 50 µM each time. Moreover, the TGI in the assay with UACC-62 melanoma, with U251 CNS, with SN12C renal, in the assay on UACC-257 melanoma, with SNB-19 CNS and with NCI-H226 lung was greater than 50 µM in each case.
As for `COC(=O)c1cc2c3c(cc(N(C)C)c2[nH]1)N(C(=O)c1cc2cc(OC)c(OC)c(OC)c2[nH]1)CC3CCl` (centres undefined), the TGI with COLO 205 colon was 0.0131 µM; with SF-268 CNS, 0.127 µM; in the assay with RPMI-8226 leukemia it was 0.0324 µM; in the assay on SNB-75 CNS, 0.00422 µM; in the assay on MOLT-4 leukemia, 0.318 µM; in the assay with MALME-3M melanoma it was less than 0.0025 µM. Besides, the TGI is less than 0.0025 µM in the assay with CAKI-1 renal; 0.0548 µM in the assay with NCI/ADR-RES ovarian; 0.00774 µM in the assay on HOP-62 NSCLC; 0.0292 µM with A498 renal; greater than 25 µM with HT29 colon; 0.0143 µM in the assay with SK-MEL-28 melanoma. The TGI in the assay on NCI-H460 lung was 0.323 µM; in the assay on UACC-62 melanoma, 0.0565 µM; with SN12C renal it was 0.384 µM; in the assay with SNB-19 CNS it was 0.0814 µM; in the assay on NCI-H226 lung, 0.0223 µM.
Consider `C#CCNC(=O)NCCCC(NC(C)=O)C(=O)NCc1ccccc1` (centres undefined), for which the TGI in the assay with COLO 205 colon, with SF-268 CNS, in the assay on RPMI-8226 leukemia, in the assay on SNB-75 CNS, in the assay with MOLT-4 leukemia and in the assay with MALME-3M melanoma was greater than 100 µM in each case. For the same molecule, the TGI in the assay with CAKI-1 renal, in the assay with HOP-62 NSCLC, in the assay on A498 renal, in the assay on HT29 colon, in the assay on SK-MEL-28 melanoma and in the assay on NCI-H460 lung was greater than 100 µM each time. Further, the TGI in the assay with UACC-62 melanoma, with U251 CNS, in the assay with SN12C renal, in the assay on UACC-257 melanoma, in the assay on SNB-19 CNS and in the assay with NCI-H226 lung was greater than 100 µM in each case.
